Measured values reported in ChEMBL document CHEMBL1201862, “PubChem BioAssay data set” (2004).
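Each compound was tested at five concentrations against cells in 96-well plates for 48 hours. GI50 = concentration required for 50% inhibition of growth.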 The source made the active and inactive calls. Rule as the data show it: active = GI50 up to about 1.1 µM and inactive = higher.

Assays:
Assay in all cases: growth of human tumour cells (NCI), 48 h
K562 = tested on: K562
HOP-92 = tested on: HOP-92
OVCAR-8 = tested on: OVCAR-8
Hs-578T = tested on: Hs-578T
MDA-MB-435 = tested on: MDA-MB-435
MCF7 = tested on: MCF7
ACHN = tested on: ACHN
HOP-62 = tested on: HOP-62
OVCAR-4 = tested on: OVCAR-4
OVCAR-5 = tested on: OVCAR-5
U-251 = tested on: U-251
NCI-H226 = tested on: NCI-H226
NCI/ADR-RES = tested on: NCI/ADR-RES
SW-620 = tested on: SW-620
RXF 393 = tested on: RXF 393
786-0 = tested on: 786-0
MDA-MB-231 = tested on: MDA-MB-231
MDA-N = tested on: MDA-N
BT-549 = tested on: BT-549

Row | Structure (SMILES) | GI50 (K562) | GI50 (HOP-92) | GI50 (OVCAR-8) | GI50 (Hs-578T) | GI50 (MDA-MB-435) | GI50 (MCF7) | GI50 (ACHN) | GI50 (HOP-62) | GI50 (OVCAR-4) | GI50 (OVCAR-5) | GI50 (U-251) | GI50 (NCI-H226) | GI50 (NCI/ADR-RES) | GI50 (SW-620) | GI50 (RXF 393) | GI50 (786-0) | GI50 (MDA-MB-231) | GI50 (MDA-N) | GI50 (BT-549)
1 | O=C1OC(c2ccccc2)=N/C1=C/c1cccs1 | 30.4 µM (inactive) | > 100 µM (inactive) | 63.1 µM (inactive) | 87.1 µM (inactive) | > 100 µM (inactive) | > 100 µM (inactive) | > 100 µM (inactive) | 48.5 µM (inactive) | 41 µM (inactive) | > 100 µM (inactive) | 59.8 µM (inactive) | 58.3 µM (inactive) | 38.3 µM (inactive) | > 100 µM (inactive) | > 100 µM (inactive) | – | – | – | –
2 | OCC(O)C(O)C(O)C(/C=N\Nc1ncnc2ccc(Br)cc12)=N/Nc1ncnc2ccc(Br)cc12 (stereo not given) | 7.48 µM (inactive) | 13.8 µM (inactive) | 4.01 µM (inactive) | > 100 µM (inactive) | 12.9 µM (inactive) | 34.4 µM (inactive) | 5.24 µM (inactive) | 7.16 µM (inactive) | 2.94 µM (inactive) | 16.7 µM (inactive) | 3.34 µM (inactive) | 5.58 µM (inactive) | – | 6.62 µM (inactive) | 24.9 µM (inactive) | 5.47 µM (inactive) | 2.87 µM (inactive) | 15.1 µM (inactive) | –
3 | COC(=O)/C(=C\C(=O)c1ccc(Br)cc1)NN=C(c1ccccc1)c1ccccc1 | > 10 µM (inactive) | > 10 µM (inactive) | > 10 µM (inactive) | – | > 10 µM (inactive) | > 10 µM (inactive) | – | > 10 µM (inactive) | > 10 µM (inactive) | – | – | – | – | > 10 µM (inactive) | > 10 µM (inactive) | > 10 µM (inactive) | > 10 µM (inactive) | > 10 µM (inactive) | –
4 | O=C(NNc1ccc([N+](=O)[O-])cc1[N+](=O)[O-])/C(O)=C\C(=O)c1ccccc1 | 25.1 µM (inactive) | – | 18.7 µM (inactive) | – | 30.5 µM (inactive) | 29.4 µM (inactive) | 23.1 µM (inactive) | 16.3 µM (inactive) | 22.6 µM (inactive) | 19.7 µM (inactive) | 14.9 µM (inactive) | 21.2 µM (inactive) | 16.3 µM (inactive) | 16.6 µM (inactive) | 16.3 µM (inactive) | 13.2 µM (inactive) | 23.4 µM (inactive) | 27.9 µM (inactive) | 22.2 µM (inactive)
5 | COc1cc(C2c3cc4c(cc3OC(NCCO)C2C)OCO4)cc(OC)c1O (stereo not given) | – | 86.5 µM (inactive) | 19 µM (inactive) | – | 2.1 µM (inactive) | 9.29 µM (inactive) | – | – | > 100 µM (inactive) | 30.7 µM (inactive) | 6.08 µM (inactive) | 49.3 µM (inactive) | 4.58 µM (inactive) | 5.53 µM (inactive) | 20.4 µM (inactive) | 8.26 µM (inactive) | 7.23 µM (inactive) | 1.61 µM (inactive) | 9.53 µM (inactive)
6 | CC(C)C(N)C(=O)NC(CCC(=O)NCCCCC(N)C(=O)NCCCNc1ccc([N+](=O)[O-])c2[nH]c3ccccc3c(=O)c12)C(N)=O (stereo not given) | > 100 µM (inactive) | 24.4 µM (inactive) | 31.2 µM (inactive) | – | 67.9 µM (inactive) | – | 40.6 µM (inactive) | 92.3 µM (inactive) | 20.6 µM (inactive) | > 100 µM (inactive) | 26.7 µM (inactive) | 50.9 µM (inactive) | 43 µM (inactive) | 41.6 µM (inactive) | 11 µM (inactive) | 35.8 µM (inactive) | 41.2 µM (inactive) | – | 13.7 µM (inactive)
7 | O=C1NCC2(CCNCC2)N1 | – | > 100 µM (inactive) | > 100 µM (inactive) | > 100 µM (inactive) | > 100 µM (inactive) | > 100 µM (inactive) | > 100 µM (inactive) | > 100 µM (inactive) | > 100 µM (inactive) | > 100 µM (inactive) | > 100 µM (inactive) | > 100 µM (inactive) | > 100 µM (inactive) | > 100 µM (inactive) | > 100 µM (inactive) | > 100 µM (inactive) | > 100 µM (inactive) | – | –
8 | CCOC(=O)C1c2[nH]c3ccccc3c2CCN1C(=O)c1ccc(OC)o1 (stereo not given) | > 10 µM (inactive) | > 10 µM (inactive) | > 10 µM (inactive) | > 10 µM (inactive) | > 10 µM (inactive) | > 10 µM (inactive) | > 10 µM (inactive) | > 10 µM (inactive) | > 10 µM (inactive) | > 10 µM (inactive) | > 10 µM (inactive) | > 10 µM (inactive) | > 10 µM (inactive) | > 10 µM (inactive) | > 10 µM (inactive) | > 10 µM (inactive) | > 10 µM (inactive) | > 10 µM (inactive) | –
9 | CCN(CC)CCCNc1nc(=O)[nH]c(C)c1C(=O)Nc1cccc2cc3ccccc3cc12 | > 100 µM (inactive) | 62.2 µM (inactive) | > 100 µM (inactive) | – | > 100 µM (inactive) | > 100 µM (inactive) | > 100 µM (inactive) | > 100 µM (inactive) | > 100 µM (inactive) | > 100 µM (inactive) | > 100 µM (inactive) | > 100 µM (inactive) | > 100 µM (inactive) | > 100 µM (inactive) | 78.7 µM (inactive) | > 100 µM (inactive) | 82.4 µM (inactive) | > 100 µM (inactive) | –
10 | CC(C(O)c1ccccc1)C(O)(C(F)(F)F)C(F)(F)F (stereo not given) | > 100 µM (inactive) | 50.8 µM (inactive) | > 100 µM (inactive) | > 100 µM (inactive) | > 100 µM (inactive) | 76.4 µM (inactive) | > 100 µM (inactive) | > 100 µM (inactive) | > 100 µM (inactive) | > 100 µM (inactive) | > 100 µM (inactive) | 69.7 µM (inactive) | > 100 µM (inactive) | > 100 µM (inactive) | > 100 µM (inactive) | > 100 µM (inactive) | > 100 µM (inactive) | > 100 µM (inactive) | –
11 | COc1cc2c(cc1OCCCCCCCCN1C(=O)c3cccc4cccc(c34)C1=O)N=C[C@@H]1CCCN1C2=O | 3.87 µM (inactive) | – | 14.9 µM (inactive) | 22.1 µM (inactive) | 14.3 µM (inactive) | 3.71 µM (inactive) | 16 µM (inactive) | 42 µM (inactive) | 0.171 µM (active) | 20.4 µM (inactive) | 6.62 µM (inactive) | 14.7 µM (inactive) | 3.27 µM (inactive) | 18.7 µM (inactive) | 12.4 µM (inactive) | 23.6 µM (inactive) | 8.63 µM (inactive) | – | 12.6 µM (inactive)
12 | CC1=C[P+](c2ccccc2)(c2ccccc2)c2ccccc2O1 | 0.524 µM (active) | 3.73 µM (inactive) | 5.14 µM (inactive) | 2.53 µM (inactive) | 2.47 µM (inactive) | 5.05 µM (inactive) | 30.6 µM (inactive) | 11.6 µM (inactive) | 3.42 µM (inactive) | 17.4 µM (inactive) | 3.65 µM (inactive) | 15.2 µM (inactive) | > 100 µM (inactive) | 5.86 µM (inactive) | > 100 µM (inactive) | 25.2 µM (inactive) | 3.96 µM (inactive) | – | 10 µM (inactive)
13 | Cc1c(/C=N\NC(=S)NCCNC(=S)N/N=C\c2c(C)n(C)n(-c3ccccc3)c2=O)c(=O)n(-c2ccccc2)n1C | – | > 100 µM (inactive) | – | > 100 µM (inactive) | 92.5 µM (inactive) | – | > 100 µM (inactive) | > 100 µM (inactive) | > 100 µM (inactive) | > 100 µM (inactive) | > 100 µM (inactive) | > 100 µM (inactive) | > 100 µM (inactive) | > 100 µM (inactive) | > 100 µM (inactive) | > 100 µM (inactive) | 54.8 µM (inactive) | – | > 100 µM (inactive)
14 | COC(=O)c1c2c(cc3c1CC1(Cc4cc5c(c(C)c4C1)CCC5)C3)CCC2 (stereo not given) | > 100 µM (inactive) | > 100 µM (inactive) | > 100 µM (inactive) | > 100 µM (inactive) | > 100 µM (inactive) | > 100 µM (inactive) | > 100 µM (inactive) | > 100 µM (inactive) | > 100 µM (inactive) | > 100 µM (inactive) | > 100 µM (inactive) | – | > 100 µM (inactive) | > 100 µM (inactive) | 90.4 µM (inactive) | > 100 µM (inactive) | > 100 µM (inactive) | > 100 µM (inactive) | –
15 | O=C(C[n+]1ccccc1)N/N=C(\C(=O)NC1=C(Cl)C(=O)c2ccccc2C1=O)c1c(O)c2ccc(O)cc2oc1=O | 1.91 µM (inactive) | 14.8 µM (inactive) | 3.66 µM (inactive) | – | 2.01 µM (inactive) | 3.48 µM (inactive) | 5.11 µM (inactive) | 10.4 µM (inactive) | 3.08 µM (inactive) | 12.3 µM (inactive) | 5.07 µM (inactive) | 5.56 µM (inactive) | 4.08 µM (inactive) | 3.89 µM (inactive) | 9.35 µM (inactive) | 4.93 µM (inactive) | 7.73 µM (inactive) | – | 5.14 µM (inactive)
16 | Cc1ccc(C(=O)Nc2ccc(S(=O)(=O)O)c3cc(S(=O)(=O)O)cc(S(=O)(=O)O)c23)cc1NC(=S)Nc1cc(C(=O)Nc2ccc(S(=O)(=O)O)c3cc(S(=O)(=O)O)cc(S(=O)(=O)O)c23)ccc1C | > 75 µM (inactive) | – | > 75 µM (inactive) | – | > 75 µM (inactive) | > 75 µM (inactive) | > 75 µM (inactive) | > 75 µM (inactive) | > 75 µM (inactive) | > 75 µM (inactive) | > 75 µM (inactive) | > 75 µM (inactive) | – | > 75 µM (inactive) | – | > 75 µM (inactive) | > 75 µM (inactive) | > 75 µM (inactive) | > 75 µM (inactive)
